Results on 50 molecules are retold here after patent publication US9617244B2, “Antibacterial quinoline derivatives” (JANSSEN PHARMACEUTICA NV, priority 2012, dated 2017).

Counter-ions that a name gives are not always drawn.

As for `Cc1cc(F)ccc1C1CC(O)(C(c2ccc(Cl)cc2)c2cc3cc(Br)ccc3[nH]c2=O)CCN1` (centres unmarked) (as salt: hydrochloride) [Compound 106], the melting point (in general, the temperature, or range, at which the solid turns liquid) is greater than 250 °C.

With `O=c1[nH]c2ccc(Br)cc2cc1[C@@H](c1ccc(Cl)cc1)[C@]1(O)CCNC(Cc2ccccc2)C1` (some centres unmarked) (as salt: hydrochloride) [Compound 121], the melting point was greater than 260 °C.

Regarding `O=c1[nH]c2ccc(Br)cc2cc1C(c1ccc(Cl)cc1)C1(O)CCNC(Cc2ccc(F)c(F)c2)C1` (centres unmarked) (as salt: hydrochloride) [Compound 126], the melting point was greater than 260 °C.

In turn, `CC1CC(O)(C(c2ccc(Cl)cc2)c2cc3cc(Br)ccc3[nH]c2=O)CCN1` (centres unmarked) (as salt: hydrochloride) [Compound 129] yielded a melting point of 240 °C.

In turn, `CC1CC(O)(C(c2ccc(Cl)cc2)c2cc3cc(Br)ccc3[nH]c2=O)CCN1` (centres unmarked) (as salt: hydrochloride) [Compound 130] showed a melting point of 200 °C.

Molecule `CC1CC(O)(C(c2ccc(Cl)cc2)c2cc3cc(Br)ccc3[nH]c2=O)CCN1` (centres unmarked) (as salt: hydrochloride) [Compound 131] showed a melting point of 241 °C.

On to `CC1CC(O)(C(c2ccc(Cl)cc2)c2cc3cc(Br)ccc3[nH]c2=O)CCN1` (centres unmarked) (as salt: hydrochloride) [Compound 132], for which the melting point is 244 °C.

For the molecule `O=c1[nH]c2ccc(Br)cc2cc1C(c1ccc(Cl)cc1)C1(O)CCNC(Cc2ccc(F)c(F)c2)C1` (centres unmarked) (as salt: hydrochloride) [Compound 134], the melting point stood at 233 °C.

With `Cc1cc(F)ccc1C1CC(O)(C(c2cccc(Cl)c2)c2cc3cc(Br)ccc3[nH]c2=O)CCN1` (centres unmarked) (as salt: hydrochloride) [Compound 135], the melting point was greater than 250 °C.

In the case of `Cc1cc(F)ccc1C1CC(O)(C(c2cccc(Cl)c2)c2cc3cc(S(C)(=O)=O)ccc3[nH]c2=O)CCN1` (centres unmarked) (as salt: hydrochloride) [Compound 159], the melting point is greater than 250 °C.

As for `CSc1ccc2[nH]c(=O)c(C(c3cccc(Cl)c3)C3(O)CCNC(c4ccc(F)cc4C)C3)cc2c1` (centres unmarked) (as salt: hydrochloride) [Compound 160], the melting point is greater than 250 °C.

Molecule `Cc1cc(F)ccc1C1CC(O)(C(c2ccccc2)c2cc3cc(Br)ccc3[nH]c2=O)CCN1` (centres unmarked) (as salt: hydrochloride) [Compound 192] showed a melting point greater than 250 °C.

`CS(=O)(=O)c1ccc2[nH]c(=O)c(C(c3ccc(Cl)cc3)C3(O)CCNC(Cc4ccc(F)c(F)c4)C3)cc2c1` (centres unmarked) (as salt: hydrochloride) [Compound 212] yielded a melting point greater than 250 °C.

On to `Cc1cc(F)ccc1C1CC(O)(C(c2ccc(Cl)cc2)c2cc3cc(S(C)(=O)=O)ccc3[nH]c2=O)CCN1` (centres unmarked) (as salt: hydrochloride) [Compound 220], for which the melting point is greater than 250 °C.

`O=c1[nH]c2ccc(Br)cc2cc1C(c1ccc(Cl)cc1)C1(O)CCNCC1Cc1cccc(F)c1` (centres unmarked) (as salt: hydrochloride) [Compound 229] gave a melting point greater than 250 °C.

Molecule `CSc1ccc2[nH]c(=O)c(C(c3ccc(Cl)cc3)C3(O)CCNC(c4ccccc4)C3)cc2c1` (centres unmarked) (as salt: hydrochloride) [Compound 230] came in with a melting point greater than 250 °C.

For `Cc1cc(F)ccc1C1CC(O)(C(c2ccccc2)c2cc3cc(-c4cccnc4)ccc3[nH]c2=O)CCN1` (centres unmarked) (as salt: hydrochloride) [Compound 236], the melting point was greater than 250 °C.

`Cc1cc(F)ccc1C1CC(O)(C(c2ccccc2)c2cc3cc(S(C)(=O)=O)ccc3[nH]c2=O)CCN1` (centres unmarked) (as salt: hydrochloride) [Compound 237] had a melting point greater than 250 °C.

In turn, `O=c1[nH]c2ccc(Cl)cc2cc1C(c1ccc(Cl)cc1)C1(O)CCNC(Cc2ccccc2)C1` (centres unmarked) (as salt: hydrochloride) [Compound 239] came in with a melting point greater than 250 °C.

Take `O=c1[nH]c2ccc(Br)cc2cc1C(c1ccc(Cl)cc1)C1(O)CCNC(CC2CCCCC2)C1` (centres unmarked) (as salt: hydrochloride) [Compound 254]: the melting point was greater than 250 °C.

Turning to `CSc1ccc2[nH]c(=O)c(C(c3ccc(Cl)cc3)C3(O)CCNC(c4ccc(F)cc4C)C3)cc2c1` (centres unmarked) (as salt: hydrochloride) [Compound 266], the melting point was greater than 250 °C.

Molecule `CSc1ccc2[nH]c(=O)c(C(c3ccc(Cl)cc3)C3(O)CCNC(Cc4ccc(F)cc4)C3)cc2c1` (centres unmarked) (as salt: hydrochloride) [Compound 281] displayed a melting point greater than 250 °C.

`CSc1ccc2[nH]c(=O)c(C(c3ccc(Cl)cc3)C3(O)CCNC(Cc4ccc(F)cc4)C3)cc2c1` (centres unmarked) (as salt: hydrochloride) [Compound 282] came in with a melting point of 206 °C.

Turning to `CSc1ccc2[nH]c(=O)c(C(c3ccc(Cl)cc3)C3(O)CCNC(CC4CCCCC4)C3)cc2c1` (centres unmarked) (as salt: hydrochloride) [Compound 295], the melting point was greater than 250 °C.

For `Cc1cc(F)ccc1C1CC(O)(C(c2ccc(Cl)cc2)c2cc3cc(Cl)ccc3[nH]c2=O)CCN1` (centres unmarked) (as salt: hydrochloride) [Compound 303], the melting point was greater than 250 °C.

For the molecule `CS(=O)(=O)c1ccc2[nH]c(=O)c(C(c3cccc(Cl)c3)C3(O)CCNC(Cc4ccc(F)cc4F)C3)cc2c1` (centres unmarked) (as salt: hydrochloride) [Compound 307], the melting point turned out to be 232 °C.

For the molecule `CS(=O)(=O)c1ccc2[nH]c(=O)c(C(c3cccc(Cl)c3)C3(O)CCNC(Cc4ccc(F)cc4F)C3)cc2c1` (centres unmarked) (as salt: hydrochloride) [Compound 308], the melting point is greater than 260 °C.

In turn, `CSc1ccc2[nH]c(=O)c(C(c3cccc(Cl)c3)C3(O)CCNC(Cc4ccc(F)cc4F)C3)cc2c1` (centres unmarked) (as salt: hydrochloride) [Compound 309] gave a melting point greater than 260 °C.

On to `CSc1ccc2[nH]c(=O)c(C(c3cccc(Cl)c3)C3(O)CCNC(Cc4ccc(F)cc4F)C3)cc2c1` (centres unmarked) (as salt: hydrochloride) [Compound 310], for which the melting point amounted to 126 °C.

Molecule `O=c1[nH]c2ccc(Br)cc2cc1C(c1ccc(Cl)cc1)C1(O)CCNC(Cc2ccc(F)cc2F)C1` (centres unmarked) (as salt: hydrochloride) [Compound 314] had a melting point of 234 °C.

`O=c1[nH]c2ccc(Br)cc2cc1C(c1ccc(Cl)cc1)C1(O)CCNC(Cc2ccc(F)cc2F)C1` (centres unmarked) (as salt: hydrochloride) [Compound 315] showed a melting point greater than 260 °C.

In the case of `O=c1[nH]c2ccc(Br)cc2cc1C(c1ccc(Cl)cc1)C1(O)CCNC(Cc2ccc(F)cc2F)C1` (centres unmarked) (as salt: hydrochloride) [Compound 322], the melting point worked out at 248 °C.

In turn, `CS(=O)(=O)c1ccc2[nH]c(=O)c(C(c3cccc(Cl)c3)C3(O)CCNC(Cc4ccc(F)cc4F)C3)cc2c1` (centres unmarked) (as salt: hydrochloride) [Compound 327] came in with a melting point of 248 °C.

Regarding `CSc1ccc2[nH]c(=O)c(C(c3ccc(Cl)cc3)C3(O)CCNC(Cc4ccc(F)cc4)C3)cc2c1` (centres unmarked) (as salt: hydrochloride) [Compound 334], the melting point worked out at 232 °C.

On to `O=c1[nH]c2ccc(Br)cc2cc1C(c1ccc(Cl)cc1)C1(O)CCNC(Cc2ccc(F)cc2)C1` (centres unmarked) (as salt: hydrochloride) [Compound 341], for which the melting point is greater than 260 °C.

As for `O=c1[nH]c2ccc(Cl)cc2cc1C(c1ccc(Cl)cc1)C1(O)CCNC(Cc2ccc(F)cc2)C1` (centres unmarked) (as salt: hydrochloride) [Compound 343], the melting point is greater than 250 °C.

With `CSc1ccc(C(c2cc3cc(Cl)ccc3[nH]c2=O)C2(O)CCNC(c3ccc(F)cc3C)C2)cc1` (centres unmarked) (as salt: hydrochloride) [Compound 349], the melting point was greater than 250 °C.

In the case of `O=c1[nH]c2ccc(Br)cc2cc1C(c1ccc(Cl)cc1)C1(O)CCNC(Cc2ccc(F)cc2)C1` (centres unmarked) (as salt: hydrochloride) [Compound 365], the melting point was determined as 242 °C.

Regarding `O=c1[nH]c2ccc(F)cc2cc1C(c1ccc(Cl)cc1)C1(O)CCNC(Cc2ccccc2)C1` (centres unmarked) (as salt: hydrochloride) [Compound 375], the melting point was greater than 250 °C.

`O=c1[nH]c2ccc(Cl)cc2cc1C(c1ccc(Cl)cc1)C1(O)CCNCC1F` (centres unmarked) (as salt: hydrochloride) [Compound 457] returned a melting point greater than 250 °C.

`COc1nc2ccc(Br)cc2cc1C(c1ccc(Cl)cc1)C1(O)CCN(Cc2ccccc2)CC1C` (centres unmarked) (as salt: salt) [Compound 25] showed a melting point of 154 °C.

`COc1nc2ccc(Br)cc2cc1C(c1ccc(Cl)cc1)C1(O)CCN(Cc2ccccc2)CC1C` (centres unmarked) (as salt: salt) [Compound 26] yielded a melting point of 238 °C.

Molecule `COc1nc2ccc(SC)cc2cc1C(c1cccc(Cl)c1)C1(O)CCNC(Cc2ccc(F)cc2F)C1` (centres unmarked) (as salt: trifluoroacetate) [Compound 50] registered a melting point of 208 °C.

`COc1nc2ccc(Br)cc2cc1C(c1ccc(Cl)cc1)C1(O)CCNC(Cc2ccc(F)cc2F)C1` (centres unmarked) (as salt: trifluoroacetate) [Compound 51] returned a melting point of 176 °C.

`COc1nc2ccc(S(C)(=O)=O)cc2cc1C(c1ccc(Cl)cc1)C1(O)CCNC(Cc2ccc(F)cc2F)C1` (centres unmarked) (as salt: trifluoroacetate) [Compound 305] showed a melting point of 133 °C.

Consider `COc1nc2ccc(S(C)(=O)=O)cc2cc1C(c1ccc(Cl)cc1)C1(O)CCNC(Cc2ccc(F)cc2F)C1` (centres unmarked) (as salt: trifluoroacetate) [Compound 306], for which the melting point came to 157 °C.

For the molecule `COc1nc2ccc(Br)cc2cc1C(c1ccc(Cl)cc1)C1(O)CCNC(Cc2ccc(F)cc2F)C1` (centres unmarked) (as salt: trifluoroacetate) [Compound 313], the melting point turned out to be 147 °C.

Molecule `COc1nc2ccc(Br)cc2cc1C(c1ccc(Cl)cc1)C1(O)CCNC(Cc2ccc(F)cc2F)C1` (centres unmarked) (as salt: trifluoroacetate) [Compound 319] showed a melting point of 169 °C.

For the molecule `COc1nc2ccc(S(C)(=O)=O)cc2cc1C(c1cccc(Cl)c1)C1(O)CCNC(Cc2ccc(F)cc2F)C1` (centres unmarked) (as salt: trifluoroacetate) [Compound 325], the melting point came to 144 °C.

The molecule `COc1nc2ccc(S(C)(=O)=O)cc2cc1C(c1cccc(Cl)c1)C1(O)CCNC(Cc2ccc(F)cc2F)C1` (centres unmarked) (as salt: trifluoroacetate) [Compound 326] gave a melting point of 166 °C.
